# Results taken from patent US9282743B2, “Chemical compounds” (Syngenta Participations AG, priority 2011, dated 2016).
# Legend:
# Type in all cases: in vivo
# Lolium perenne (LOLPE) [1] = assay: Example B6: post application on weeds, LOLPE; details: 312 h, after 13 days, 100 = total damage, 0 = no damage, read-out: LOLPE damage to plant
# Experimental: (§1) Lolium perenne (LOLPE), Alopecurus myosuroides (ALOMY), Echinochloa crus-galli (ECHCG) and Avena fatua (AVEFA). Activity Against Weeds Seeds of a variety of test species were sown in standard soil in pots. After cultivation for 8 days under controlled conditions in a glasshouse (at 24/16° C., day/night; 14 hours light; 65% humidity), the plants were sprayed with an aqueous spray solution derived from the formulation of the technical active ingredient in acetone/water (50:50) solution containing 0.5% Tween 20 (polyoxyethelyene sorbitan monolaurate, CAS RN 9005-64-5). The test plants were then grown in a glasshouse under controlled conditions in a glasshouse (at 24/16° C., day/night; 14 hours light; 65% humidity) and watered twice daily. After 13 days, the test was evaluated (100=total damage to plant; 0=no damage to plant).
# Winter wheat (TRZAW) = assay: Example B8: post application on wheat, with and without safener cloquintocet-mexyl; details: after 13 days, 100 = total damage, 0 = no damage
# Experimental: Application with Safener (Cloquintocet-Mexyl) Winter wheat seeds with a seed treatment of cloquintocet-mexyl applied at a rate of 0.5 g/kg seeds were sown in standard soil in pots. After cultivation for 8 days under controlled conditions in a glasshouse (at 24/16° C., day/night; 14 hours light; 65% humidity), the plants were sprayed with an aqueous spray solution derived from the formulation of the technical active ingredient in acetone/water (50:50) solution containing 0.5% Tween 20 (polyoxyethelyene sorbitan monolaurate, CAS RN 9005-64-5). The test plants were then grown in a glasshouse under controlled conditions in a glasshouse (at 24/16° C., day/night; 14 hours light; 65% humidity) and watered twice daily. After 13 days, the test was evaluated (100=total damage to plant; 0=no damage to plant).
# [2] = test system: Echinochloa crus-galli (ECHCG); assay: Example B6: post application on weeds, ECHCG; details: 312 h, after 13 days, 100 = total damage, 0 = no damage, read-out: ECHCG damage to plant
# Experimental: as §1
# [3] = test system: Echinochloa crus-galli (ECHCG); assay: Example B7: pre application on weeds, ECHCG; details: 312 h, pre-emergence spray one day after sowing, evaluated after 13 days, read-out: Pre application on weeds, ECHCG (100=total damage to plant; 0=no damage to plant)
# Experimental: as §1, with “one day” for “8 days”
# Lolium perenne (LOLPE) [4] = assay: Example B7: pre application on weeds, LOLPE; details: 312 h, pre-emergence spray one day after sowing, evaluated after 13 days, read-out: Pre application on weeds, LOLPE (100=total damage to plant; 0=no damage to plant)
# Experimental: as §1, with “one day” for “8 days”
# [5] = test system: Alopecurus myosuroides (ALOMY); assay: Example B6: post application on weeds, ALOMY; details: 312 h, after 13 days, 100 = total damage, 0 = no damage, read-out: ALOMY damage to plant
# Experimental: as §1
# Avena fatua (AVEFA) [6] = assay: Example B6: post application on weeds, AVEFA; details: 312 h, after 13 days, 100 = total damage, 0 = no damage, read-out: AVEFA damage to plant
# Experimental: as §1
# Avena fatua (AVEFA) [7] = assay: Example B7: pre application on weeds, AVEFA; details: 312 h, pre-emergence spray one day after sowing, evaluated after 13 days, read-out: Pre application on weeds, AVEFA (100=total damage to plant; 0=no damage to plant)
# Experimental: as §1, with “one day” for “8 days”
# [8] = test system: Alopecurus myosuroides (ALOMY); assay: Example B7: pre application on weeds, ALOMY; details: 312 h, pre-emergence spray one day after sowing, evaluated after 13 days, read-out: Pre application on weeds, ALOMY (100=total damage to plant; 0=no damage to plant)
# Experimental: as §1, with “one day” for “8 days”
# [9] = 250 g/ha + 0.5 g/kg seeds cloquintocet-mexyl
# [10] = 62.5 g/ha + 0.5 g/kg seeds cloquintocet-mexyl
SMILES,pest or weed control at 250 g/ha (Lolium perenne (LOLPE) [1]),TRZAW damage to plant (Winter wheat (TRZAW); [9]),"TRZAW damage to plant (Winter wheat (TRZAW); 250 g/ha, without safener)",pest or weed control at 250 g/ha [2],pest or weed control at 250 g/ha [3],pest or weed control at 250 g/ha (Lolium perenne (LOLPE) [4]),pest or weed control at 250 g/ha [5],pest or weed control at 250 g/ha (Avena fatua (AVEFA) [6]),pest or weed control at 250 g/ha (Avena fatua (AVEFA) [7]),pest or weed control at 250 g/ha [8],TRZAW damage to plant (Winter wheat (TRZAW); [10]),"TRZAW damage to plant (Winter wheat (TRZAW); 62.5 g/ha, without safener)"
"CON1CCn2c(OC(=O)C(C)(C)C)c(-c3c(C)cc(C)cc3C)c(=O)n2CC1 [Compound P1.1, 2,2-Dimethyl-propionic acid 3-methoxy-9-oxo-8-(2,4,6-trimethyl-phenyl)-2,3,4,5-tetrahydro-1H,9H-pyrazolo[1,2-a][1,2,5]triazepin-7-yl ester]",100%,50,70,100%,20%,100%,100%,100%,50%,90%,,
"CCOC(=O)Oc1c(-c2c(C)cc(C)cc2C)c(=O)n2n1CCN(OC)CC2 [Compound P1.2, Carbonic acid ethyl ester 3-methoxy-9-oxo-8-(2,4,6-trimethyl-phenyl)-2,3,4,5-tetrahydro-1H,9H-pyrazolo[1,2-a][1,2,5]triazepin-7-yl ester]",100%,30,80,100%,40%,90%,50%,100%,80%,80%,,
CCOC(=O)Oc1c(-c2c(C)cc(Cl)cc2C)c(=O)n2n1CCN(OC)CC2 [Compound P1.3],60%,20,70,60%,20%,10%,80%,80%,0%,0%,,
C#Cc1cc(C)cc(C)c1-c1c(OC(=O)OCC)n2n(c1=O)CCN(OC)CC2 [Compound P1.5],90%,,,100%,20%,30%,100%,100%,90%,40%,20,80
CCOC(=O)Oc1c(-c2cc(-c3ccc(Cl)cc3)ccc2C)c(=O)n2n1CCN(OC)CC2 [Compound P1.7],70%,,,80%,0%,0%,70%,100%,0%,0%,40,80
C#Cc1cc(C)c(-c2c(OC(=O)OCC)n3n(c2=O)CCN(OC)CC3)c(C)c1 [Compound P1.8],40%,20,60,70%,20%,0%,80%,80%,20%,0%,,
